This note sets out measurements from patent US20240182445A1 (ONO PHARMACEUTICAL CO., LTD., priority 2019, published 2024).

By IC50 is commonly meant the midpoint of a concentration-inhibition curve.

The first experiment deals with T1, human TREK-1 (Homo sapiens, UniProt O95069).
T1 construct: expressed in transfected cells
T1 sequence (O95069 1-426): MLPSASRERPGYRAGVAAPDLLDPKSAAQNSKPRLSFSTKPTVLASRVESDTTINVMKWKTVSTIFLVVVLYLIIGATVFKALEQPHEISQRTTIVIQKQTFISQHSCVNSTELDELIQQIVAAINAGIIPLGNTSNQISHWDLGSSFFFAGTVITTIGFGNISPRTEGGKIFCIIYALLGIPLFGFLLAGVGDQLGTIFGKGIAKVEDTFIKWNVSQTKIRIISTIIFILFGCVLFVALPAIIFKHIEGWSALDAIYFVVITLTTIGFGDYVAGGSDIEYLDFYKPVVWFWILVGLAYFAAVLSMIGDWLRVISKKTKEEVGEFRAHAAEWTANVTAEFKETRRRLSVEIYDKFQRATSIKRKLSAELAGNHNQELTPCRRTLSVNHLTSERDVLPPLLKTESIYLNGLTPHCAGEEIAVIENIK
In words: TREK-1 Thallium (Tl+) flux assay, Method 1. The experiment is classed as cell-based. As to conditions: TREK-1 Thallium (Tl+) flux assay, Method 1. In a few lines:
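Readout: Thallos fluorescence ratio, taken 25 s post-thallium relative to the pre-thallium baseline average, then converted to % inhibition. Cells were CHO-K1 stably expressing human TREK-1, dye-loaded and exposed to test compound (vehicle 0.3% DMSO) for 10 min prior to thallium stimulation.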
`CC(=O)N1CCC(n2ncc(Cl)c2C(=O)Nc2ncc(-c3ccc(OC(F)F)cc3)cc2C)CC1` [Compound 421, 1-(1-acetylpiperidin-4-yl)-4-chloro-N-(5-(4-(difluoromethoxy)phenyl)-3-methylpyridin-2-yl)-1H-pyrazole-5-carboxamide] returned an IC50 of 4400 nM. Compound `CC(=O)N1CCC(n2ncc(Cl)c2C(=O)Nc2ncc(-c3ccc(CC(C)C)cc3)cc2C)CC1` [Compound 418, 1-(1-acetylpiperidin-4-yl)-4-chloro-N-(5-(4-isobutylphenyl)-3-methylpyridin-2-yl)-1H-pyrazole-5-carboxamide] showed an IC50 of 4170 nM. On the same count and under the same terms, next, `COc1cc(-c2cnc(NC(=O)c3c(Cl)cnn3C3CCN(C(=O)OC(C)(C)C)CC3)c(C)c2)ccn1` [Compound 437, tert-butyl 4-(4-chloro-5-((2′-methoxy-5-methyl-[3,4′-bipyridin]-6-yl)carbamoyl)-1H-pyrazol-1-yl)piperidine-1-carboxylate]: 9960 nM; `CCC(=O)N1CCC(n2ncc(Cl)c2C(=O)Nc2ccc(OCc3ccccc3)cc2C)CC1` [Compound 397, N-(4-(benzyloxy)-2-methylphenyl)-4-chloro-1-(1-propionylpiperidin-4-yl)-1H-pyrazole-5-carboxamide]: 1680 nM; `CCOc1ccc(-c2cnc(NC(=O)c3c(Cl)cnn3C3CCN(C(=O)OC(C)(C)C)CC3)c(C)c2)cc1` [Compound 431, tert-butyl 4-(4-chloro-5-((5-(4-ethoxyphenyl)-3-methylpyridin-2-yl)carbamoyl)-1H-pyrazol-1-yl)piperidine-1-carboxylate]: 6400 nM. On the same count and under the same terms, to `Cc1cc(OCc2ccccc2)ccc1NC(=O)c1c(Cl)cnn1C1CC2(C1)CN(C(=O)C(C)C)C2` [Compound 398, N-(4-(benzyloxy)-2-methylphenyl)-4-chloro-1-(2-isobutyryl-2-azaspiro[3.3]heptan-6-yl)-1H-pyrazole-5-carboxamide] belongs 1740 nM; to `COc1ccc(-c2cnc(NC(=O)c3c(Cl)cnn3C3CCN(C(=O)OC(C)(C)C)CC3)c(C)c2)c(C)c1` [Compound 403, tert-butyl 4-(4-chloro-5-((5-(4-methoxy-2-methylphenyl)-3-methylpyridin-2-yl)carbamoyl)-1H-pyrazol-1-yl)piperidine-1-carboxylate], 2290 nM; to `CC(=O)N1CCC(n2ncc(Cl)c2C(=O)Nc2ncc(-c3cnc4ccccc4c3)cc2C)CC1` [Compound 422, 1-(1-acetylpiperidin-4-yl)-4-chloro-N-(3-methyl-5-(quinolin-3-yl)pyridin-2-yl)-1H-pyrazole-5-carboxamide], 4460 nM.

The experiment is the same for the next values; noted with them: TREK-1 Thallium (Tl+) flux assay; no *^12 (Method 2) mark on these rows.
On to `Cc1cc(C#Cc2ccc(F)cc2)cnc1NC(=O)c1c(Cl)cnn1C[C@@H]1CCN(C(=O)C(C)C)C[C@H]1F` [Compound 293, 4-chloro-1-(((3S,4S)-3-fluoro-1-isobutyrylpiperidin-4-yl)methyl)-N-(5-((4-fluorophenyl)ethynyl)-3-methylpyridin-2-yl)-1H-pyrazole-5-carboxamide], for which the IC50 turned out to be 520 nM. This lies in the sub-micromolar range. The same measure, in the same setting: next, `CC(C)(C)OC(=O)N1CC[C@@H](Cn2ncc(Cl)c2C(=O)Nc2ncc(C#Cc3ccccc3)cc2F)[C@H](F)C1` [Compound 240, tert-butyl (3S,4S)-4-((4-chloro-5-((3-fluoro-5-(phenylethynyl)pyridin-2-yl)carbamoyl)-1H-pyrazol-1-yl)methyl)-3-fluoropiperidine-1-carboxylate]: 370 nM. Same read-out and setting: to `Cc1cc(OCc2ccccc2)ccc1NC(=O)c1c(Cl)cnn1[C@H]1CC[C@@H](NC(=O)C2CC2)CC1` [Compound 385, N-(4-(benzyloxy)-2-methylphenyl)-4-chloro-1-(cis-4-(cyclopropanecarboxamido)cyclohexyl)-1H-pyrazole-5-carboxamide] belongs 830 nM; to `Cc1cc(C#Cc2ccc(F)cc2)cnc1NC(=O)c1c(Cl)cnn1CC1CCCN(C(=O)C2COCCO2)C1` (stereo not shown) [Compound 223, 1-((1-(1,4-dioxane-2-carbonyl)piperidin-3-yl)methyl)-4-chloro-N-(5-((4-fluorophenyl)ethynyl)-3-methylpyridin-2-yl)-1H-pyrazole-5-carboxamide], 340 nM.

The compound `Cc1cc(C#Cc2ccccc2)cnc1NC(=O)c1c(Cl)cnn1C1CCN(C(=O)OC(C)(C)C)CC1` [Compound 328] had an IC50 of 650 nM.

Still in this experiment, the particulars now being: TREK-1 Thallium (Tl+) flux assay; values without footnote *12 are Method 1.
`Cc1cc(C#Cc2ccccc2)cnc1NC(=O)c1c(Cl)cnn1C1CN(C(=O)C2CC2)C1` [Compound 87, 4-chloro-1-(1-(cyclopropanecarbonyl)azetidin-3-yl)-N-(3-methyl-5-(phenylethynyl)pyridin-2-yl)-1H-pyrazole-5-carboxamide]: it took 170 nM to reach half-maximal inhibition (IC50). Take `Cc1cc(C#Cc2cccs2)cnc1NC(=O)c1c(Cl)cnn1[C@H]1CCOC1` [Compound 89, (S)-4-chloro-N-(3-methyl-5-(thiophen-2-ylethynyl)pyridin-2-yl)-1-(tetrahydrofuran-3-yl)-1H-pyrazole-5-carboxamide]: the midpoint of inhibition, the IC50, lay at 180 nM.

`Cc1cc(C#Cc2ccccc2)cnc1NC(=O)c1c(Cl)cnn1CC1CCN(C(=O)C2CC2)CC1` [Compound 52, 4-chloro-1-((1-(cyclopropanecarbonyl)piperidin-4-yl)methyl)-N-(3-methyl-5-(phenylethynyl)pyridin-2-yl)-1H-pyrazole-5-carboxamide] gave an IC50 of 140 nM. Same read-out and setting: to `CC(=O)N1CCCC(n2ncc(Cl)c2C(=O)Nc2ncc(C#Cc3ccccc3)cc2C)CC1` (stereo not shown) [Compound 131, 1-(1-acetylazepan-4-yl)-4-chloro-N-(3-methyl-5-(phenylethynyl)pyridin-2-yl)-1H-pyrazole-5-carboxamide] belongs 220 nM; to `Cc1cc(C#Cc2cccs2)cnc1NC(=O)c1c(Cl)cnn1C1CCN(C(=O)C(C)C)CC1` [Compound 111, 4-chloro-1-(1-isobutyrylpiperidin-4-yl)-N-(3-methyl-5-(thiophen-2-ylethynyl)pyridin-2-yl)-1H-pyrazole-5-carboxamide], 200 nM; to `CC(=O)N[C@H]1C[C@H](n2ncc(Cl)c2C(=O)Nc2ncc(C#Cc3ccccc3)cc2C)C1` [Compound 156, 1-(trans-3-acetamidocyclobutyl)-4-chloro-N-(3-methyl-5-(phenylethynyl)pyridin-2-yl)-1H-pyrazole-5-carboxamide], 240 nM.

For `CC(=O)N1CC[C@H](n2ncc(Cl)c2C(=O)Nc2ncc(C#Cc3ccccc3)cc2C)C1` [Compound 128, (S)-1-(1-acetylpyrrolidin-3-yl)-4-chloro-N-(3-methyl-5-(phenylethynyl)pyridin-2-yl)-1H-pyrazole-5-carboxamide], 220 nM corresponded to half-maximal inhibition (IC50).

Compound `O=C(Nc1ncc(C#Cc2ccccc2)cc1F)c1c(Cl)cnn1CC1CCN(C(=O)C2CC2)C1` (stereo not shown) [Compound 43, 4-chloro-1-((1-(cyclopropanecarbonyl)pyrrolidin-3-yl)methyl)-N-(3-fluoro-5-(phenylethynyl)pyridin-2-yl)-1H-pyrazole-5-carboxamide] came in with an IC50 of 130 nM.

The compound `CC(=O)N1CCC(Cn2ncc(Cl)c2C(=O)Nc2ncc(C#Cc3ccccc3)cc2F)C1` (stereo not shown) [Compound 44, 1-((1-acetylpyrrolidin-3-yl)methyl)-4-chloro-N-(3-fluoro-5-(phenylethynyl)pyridin-2-yl)-1H-pyrazole-5-carboxamide] had an IC50 of 130 nM.
